Measurements from patent US20050282863A1, “Novel-N substituted dihydrobenzothiepino, dihydrobenzoxepino and tetrahydro benzocyclohepta indoles as selective estrogen receptor modulators” (Council of Scientific & Industrial Research, priority 2004, published 2005).

Columns and labels:
[1] = system: adult female rats; assay: Post-coital antifertility efficacy in adult female rats; format: in vivo, rat; conditions: daily dose 10 mg/kg, oral, days 1-7 post-coitum
Source text: Adult female rats are caged overnight with coeval males of proven fertility and their vaginal smears are checked on the following morning. The day of presence of spermatozoa in the vaginal smear is taken as day 1 of pregnancy. Mated rats are isolated and randomized into various treatment groups and treated orally with the compound of invention or the vehicle on days 1-7/1-5 post-coitum. Animals of all the groups are autopsied on day 10 post-coitum and number and status of corpora lutea and implantation sites in each rat are recorded. The compounds of the present invention are considered active if there is complete absence of implantations in the uterus of all rats, in comparison to presence of normal implantations in the uterus of rats of vehicle control group.

[2] = system: chick fetal bones in culture; assay: Inhibition in PTH-induced resorption of 45Ca from chick fetal bones in culture (antiresorptive activity in vitro); format: cell-based; conditions: Gallus gallus, 96 h, 100 μM; PTH-induced 45Ca resorption, 96 h culture; read-out: T/C ratio
Procedure: 5 μl of each concentration are used for evaluation of antiresorptive activity in vitro. In control experiments, 5 μl of appropriate solvent is used in lieu of the test compound. Femur bones are isolated from chick embryos on day 11 post-ovulation. The adhering soft connective tissue is completely removed. Each femur bone is then placed in a drop of phosphate buffered saline (PBS) and is transferred to BGJb culture medium containing ^45CaCl2 and incubated for 2 h. Labeled femur bones are washed 2-3 times with PBS and transferred to BGJb medium containing parathyroid hormone and cultured for 96 h in the presence or absence of the compound of invention or the vehicle in BGJb medium. Contralateral femur of each fetus serves as corresponding control. Culture medium with the respective treatment in each well is changed after 48 h. On termination of the culture at 96 h, bones are transferred to 0.1 N HCl for 24 h. Radioactivity due to ^45Ca in the spent medium collected at 48 and 96 h of culture and HCl extract at 96 h of culture is quantified by Liquid Scintillation Spectrophotometer in 10 ml of the scintillation fluid. Bone resorbing activity is expressed as percentage of ^45Ca released into the culture medium and the effect of the compound of invention as percent of the corresponding contra-lateral control or T/C ratio as shown below: [formula]
Appropriate solvents are selected from solvents like water, physiological saline, phosphate buffered saline, phosphate buffer, DMSO alone or in a suitable combination thereof.

[3] = system: immature ovariectomized rats; assay: Estrogen agonistic activity: increase in uterine weight in immature ovariectomized rats; format: in vivo, rat; conditions: Rattus norvegicus, 72 h, daily dose 10 mg/kg, 3 days; percent of ovariectomized + vehicle group
Procedure: Twenty-one-day-old immature female rats are bilaterally ovariectomized under light ether anaesthesia and, after post-operative rest for 7 days, are randomized into different treatment groups. Each rat receives the compound of the invention once daily for 3 consecutive days on days 28-30 of age. A separate group of animals receiving only the vehicle for similar duration serves as control. A autopsy 24 h after the last treatment on day 31 of age, vaginal smear of each rat is taken and uterus is carefully exised, gently blotted, weighed and fixed for histology and histomorphometry using image analysis. Premature opening of vagina, cornification of vaginal epitelium, increase in uterine fresh weight, total uterine and endometrial area and uterine luminal epithelial cell height are taken as parameters for evaluation of estrogen agonistic activity in comparision to rats of vehicle control group.

[4] = system: immature ovariectomized rats; assay: Estrogen antagonistic activity: inhibition in 17α-ethynylestradiol induced uterine weight gain in immature ovariectomized rats; format: in vivo, rat; conditions: Rattus norvegicus, 72 h; daily dose 10 mg/kg with 0.02 mg/kg 17-alfa-ethynylestradiol, 3 days; read-out: Percent inhibition in 17α-ethynylestradiol induced uterine weight gain
Procedure: Twenty-one-day-old immature female rats are bilaterally ovariectomized under light ether anaesthesia and after post-operative rest for 7 days, are randomized into different treatment groups. Each rat receives the compounds of the invention and 0.02 mg/kg dose of 17-alfa-ethynylestradiol in 10% ethanol-distilled water once daily for 3 consecutive days on days 28-30 of age. A separate group of animals receiving only 17-alfa-ethynylestradiol (0.02 mg/kg) in 10% ethanol-distilled water for similar duration are used for comparison. At autopsy on day 31 of age, vaginal smear of each rat is taken and uterus is carefully excised, gently blotted, weighed and fixed for histology and histomorphometry using image analysis. Inhibition in 17-alfa-ethynylestradiol-induced premature opening of vagina, cornification of vaginal epithelium, increase in uterine fresh weight, total uterine and endometrial area and uterine luminal epithelial cell height are taken as parameters for evaluation of estrogen antagonistic activity.

[5] = target: T1, estrogen receptors (Rattus norvegicus, UniProt P06211); assay: Relative binding affinity (RBA) to estrogen receptors, 3H-estradiol competition assay; design: key: % of 17-beta-estradiol binding affinity (estradiol = 100); conditions: relative to 17-beta-estradiol (=100, percentage value); rat uterine cytosol, 3H-E2, 18 hrs at 4° C.
T1 construct: Aliquot of uterine cytosol (200 μl; 2 uteri per ml) prepared in TEA buffer; from tissue; host or cells: uterine cytosol of immature estradiol-primed 20-21 day old rats
T1 sequence (P06211 1-600): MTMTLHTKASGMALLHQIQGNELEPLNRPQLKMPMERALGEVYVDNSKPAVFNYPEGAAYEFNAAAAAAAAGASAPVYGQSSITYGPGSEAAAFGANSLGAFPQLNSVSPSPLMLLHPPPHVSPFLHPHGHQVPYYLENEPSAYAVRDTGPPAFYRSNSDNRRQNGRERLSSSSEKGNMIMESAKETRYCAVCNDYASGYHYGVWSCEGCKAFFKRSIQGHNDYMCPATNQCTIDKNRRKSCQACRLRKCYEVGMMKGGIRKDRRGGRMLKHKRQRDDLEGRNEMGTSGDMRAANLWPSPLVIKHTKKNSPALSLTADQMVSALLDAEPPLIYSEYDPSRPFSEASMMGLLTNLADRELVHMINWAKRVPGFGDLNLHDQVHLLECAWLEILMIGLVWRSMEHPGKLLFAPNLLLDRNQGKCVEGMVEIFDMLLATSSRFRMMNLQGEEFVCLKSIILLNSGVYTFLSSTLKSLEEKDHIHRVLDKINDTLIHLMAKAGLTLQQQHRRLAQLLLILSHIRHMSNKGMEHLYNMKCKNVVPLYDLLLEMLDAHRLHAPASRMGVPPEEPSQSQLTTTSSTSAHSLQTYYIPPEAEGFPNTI
Procedure: The relative binding affinity (RBA) of the compounds for estrogen receptor is determined by competition assay, employing ^3H-estradiol (^3H-E2) as the radioligand. The test ligands and ^3H-E2 are incubated at 4° C. with cystol estrogen receptors obtained from uteri of immature estradoil-primed (1 μg/rat 24 h before autopsy) 20-21 days old rats. Aliquot of uterine cytosol (200 μl; 2 uteri per ml) prepared in TEA buffer (10 mM Tris, 1.5 mM EDTA, 0.02% sodium azide, pH 7.4) are incubated in duplicate with a fixed concentration of ^3H-E2 in the absence or presence of various concentrations of the competitor substance dissolved in 30 μl of the TEA buffer containing DMF as co-solvent (final concentration of DMF in the incubation mixture never exceeded 5%) for 18 hrs at 4° C. At the end of this period, dextran coated charcoal (5% Norit 0.5% dextran) suspension in 100 μl of TEA buffer is added to each tube, briefly vortexed and allowed to stand for 15 minutes at 4° C. The mixture is centrifuged at 800 g for 10 minutes and the supernatants counted for radioactivity in 10 ml of a dioxane-based scintillation fluid. RBA of the text compound is computed from a graph plotted between percent bound radioactivity verses log concentration of the test substance. […] This when multiplied with 100 gives the percentage value designated as RBA.

c1ccc2c(c1)SCCc1c-2n(CCN2CCCCC2)c2ccccc12 [Example number 5, 12-[2-(Piperidine-1-yl)ethyl]-6,7-dihydro-12H-benzothiepino [5,4-b]indole]
% Efficacy [1]: Inactive | melting point: 118 °C

c1ccc2c(c1)OCCc1c-2n(CCN2CCCCC2)c2ccccc12 [Example number 45, 12-[2-(Piperidine-1-yl)ethyl]-6,7-dihydro-12H-benzoxepino[5,4-b]indole]
% Efficacy [1]: Inactive | melting point: 103 °C

c1ccc2c(c1)OCCc1c-2n(Cc2ccc(OCCCN3CCCCC3)cc2)c2ccccc12 [Example number 58, 12-[4-(3-Piperidin-1-yl-propyloxy)benzyl]-6,7-dihydro-12H-benzoxepino[5,4-b]indole]
activity at 100 µM [2]: 98% | % Efficacy [1]: Inactive | change in vivo at 10 mg/kg [3]: 7.85% | inhibition in vivo at 10 mg/kg/day [4]: 11.4% | melting point: 129 to 130 °C

CCCCN(C)CCCCCn1c2c(c3cc(O)ccc31)CCSc1cc(O)ccc1-2 [Example number 37]
RBA [5]: 0.36 | melting point: 134 to 136 °C

c1ccc2c(c1)OCCc1c-2n(CCCN2CCCCC2)c2ccccc12 [Example number 47, 12-[3-(Piperidine-1-yl)propyl]-6,7-dihydro-12H-benzoxepino[5,4-b]indole]
% Efficacy [1]: Inactive | change in vivo at 10 mg/kg [3]: 8.31% | inhibition in vivo at 10 mg/kg/day [4]: 17.2% | melting point: 65 to 66 °C

Oc1ccc2c(c1)c1c(n2CCCCCN2CCCC2)-c2ccccc2SCC1 [Example number 30, 9-Hydroxy-12-[5-(pyrrolidine-1-yl)pentyl]-6,7-dihydro-12H-benzothiepino [5,4-b]indole]
% Efficacy [1]: Inactive | RBA [5]: <0.001 | melting point: 217 to 219 °C

c1ccc2c(c1)SCCc1c-2n(Cc2ccc(OCCCN3CCCCC3)cc2)c2ccccc12 [Example number 41, 12-[4-(3-Piperidin-1-yl-propyloxy)benzyl]-6,7-dihydro-12H-benzothiepino [5,4-b]indole]
activity at 100 µM [2]: 108% | % Efficacy [1]: Inactive | change in vivo at 10 mg/kg [3]: 42.9% | inhibition in vivo at 10 mg/kg/day [4]: 6.41% | melting point: 70 to 71 °C
